The data set in a line: Single dose intravenous PK study in male Sprague Dawley rats (plasma by LC-MS/MS). The format is in vivo. Conditions: PRX-P5-011 IV 2 mg/kg b.w. As to the method:
We describe here PK results of prodrugs of PRX-002 (−) or (+) isomers. All doses of prodrugs were administered such that they were equivalent to 5 mg/kg of PRX-002 (−) or (+) for oral studies and 2 mg/kg PRX-002 (−) or (+) for intravenous studies in male Sprague-Dawley (MSD) rats. Higher doses of up to 10 or 15 mg/kg [again equivalent to PRX-002 (−)] were used in some studies (as specified)]. Formulation preparation, dose administration and time of sample collection was as follows.
(§1) Adult male Sprague Dawley Rats aged 8-10 weeks were used for the study. Animals were administered the test item by Intravenous bolus route with a dose of 2 mg/kg body weight at dose volume of 5.0 mL/kg body weight. Under mild isoflurane anesthesia, blood specimens were collected by retro-orbital puncture method using capillary tubes into pre-labeled tubes containing anticoagulant (K2EDTA-2 mg/mL blood) during the next 24 hours of post dose as mentioned in below table. For blood sampling at multiple time points, right and left eyes were used alternatively for blood collection. Collected blood specimens were centrifuged at 4000 rpm, 4° C. for 10 minutes and plasma were separated and stored at −80° C. until analysis.
Blood was collected as outlined in Table 39.2 (IV).
Test item PRX-P4-003 was weighed and transferred to a graduated tube. Then 600 μL of PEG 400 (v/v) was added and vortex mixed thoroughly until the test item was completely dissolved. Then 1.800 mL of Hydroxypropyl-β-cyclodextrin (HPβCD, 50% w/v) was added and vortex mixed thoroughly. The final volume was then made up to 3.600 mL with sterile water for injection (SWFI, v/v) with final formulation strength of 5.16 mgA/mL. […] This formulation was freshly prepared before the administration to animals.
as §1, with “administered with a PRX-P4-003” for “administered the test item”, “of 10” for “of 2”, “of 5” for “of 5.0”
Test item PRX-P5-006 was weighed and transferred to a graduated tube. Then 500 μL of DMSO (v/v) was added vortex mixed thoroughly until the test item was completely dissolved. Then 4000 μL of Hydroxypropyl-β-cyclodextrin (HPβCD, 50% w/v) was added and vortex mixed thoroughly. Then 2500 μL of PEG 400 (v/v) was added and vortex mixed thoroughly. The final volume was then made up to 10000 μL with sterile water for injection (SWFI, v/v) with final formulation strength of 3.97 mg/mL. […] This formulation was freshly prepared before the administration to animals.
as §1, with “administered with a PRX-P5-006” for “administered the test item”, “of 15” for “of 2”, “of 10” for “of 5.0”
The plasma concentrations of fencamfamine were measured by LC-MS/MS over time. […] The release of fencamfamine from the prodrugs varied depending on the chain length of the fatty acid linkers attached to fencamfamine. […]

Data on one compound can be found in US10662146B2, “Prodrugs of fencamfamine” (Praxis Bioresearch, LLC, priority 2015, dated 2020).

“And” between values parts separate entries of the source, which are not always exact repeats. Equal entries are not always repeated.

Consider `CCCCCCCCCCCCCCCCCC(=O)OC(C)OC(=O)N(CC)C1C2CCC(C2)C1c1ccccc1` (single isomer, unassigned) [PRX-P5-011, N-(1-Octadecanoyloxyethoxycarbonyl)-(+)-N-ethyl-3-phenylbicyclo[2.2.1]heptan-2-amine], for which the “Plasma concentration of PRX-P5-011” value reads like this: (0.08 h, individual animals, 2 mg/kg) 114.77 ng/mL and 37.09 ng/mL and 179.14 ng/mL; (0.25 h, individual animals, 2 mg/kg) 56.47 ng/mL and 17.98 ng/mL and 101.04 ng/mL; (0.50 h, individual animals) 0.00 ng/mL; (1.00 h, individual animals) 0.00 ng/mL; (2.00 h, individual animals) 0.00 ng/mL; (4.00 h, individual animals) 0.00 ng/mL. Further, the “Plasma concentration of PRX-P5-011” value reads like this: (6.00 h, individual animals) 0.00 ng/mL; (24.00 h, individual animals) 0.00 ng/mL. The compound further had a concentration at 0.08 h (male, Sprague-Dawley, rat, plasma, iv, 2 mg/kg, 0.08 h, mean) of 110 ng/mL. Also, the concentration at 0.25 h (male, Sprague-Dawley, rat, plasma, iv, 2 mg/kg, 0.25 h, mean) is 58.5 ng/mL. Further, the concentration at 0.5 h (male, Sprague-Dawley, rat, plasma, iv, 2 mg/kg, 0.50 h, individual animals) worked out at 0 ng/mL and the concentration at 0.5 h (male, Sprague-Dawley, rat, plasma, iv, 2 mg/kg, 0.50 h, mean) came to 0 ng/mL. The concentration at 1 h (male, Sprague-Dawley, rat, plasma, iv, 2 mg/kg, 1.00 h, individual animals) was 0 ng/mL and the concentration at 1 h (male, Sprague-Dawley, rat, plasma, iv, 2 mg/kg, 1.00 h, mean) was found to be 0 ng/mL. Moreover, the concentration at 2 h was found to be 0 ng/mL (male, Sprague-Dawley, rat, plasma, iv, 2 mg/kg, 2.00 h, individual animals) and 0 ng/mL (male, Sprague-Dawley, rat, plasma, iv, 2 mg/kg, 2.00 h, mean). For the same compound, the concentration at 4 h reads like this: (male, Sprague-Dawley, rat, plasma, iv, 2 mg/kg, 4.00 h, individual animals) 0 ng/mL; (male, Sprague-Dawley, rat, plasma, iv, 2 mg/kg, 4.00 h, mean) 0 ng/mL. In addition, the concentration at 6 h was found to be 0 ng/mL (male, Sprague-Dawley, rat, plasma, iv, 2 mg/kg, 6.00 h, individual animals) and 0 ng/mL (male, Sprague-Dawley, rat, plasma, iv, 2 mg/kg, 6.00 h, mean). The compound further came in with a concentration at 24 h (male, Sprague-Dawley, rat, plasma, iv, 2 mg/kg, 24.00 h, individual animals) of 0 ng/mL and a concentration at 24 h (male, Sprague-Dawley, rat, plasma, iv, 2 mg/kg, 24.00 h, mean) of 0 ng/mL.
